In ChEMBL document CHEMBL4014333, “Discovery of Small Molecules for Repressing Cap-Independent Translation of Human Vascular Endothelial Growth Factor (hVEGF) as Novel Antitumor Agents” (J Med Chem, 2017):
The source made the active and inactive calls. The rule behind the calls is not given here.

What was measured:
Mus musculus [1] = experiment: Downregulation of VEGF-A expression in tumor of Balb/c mouse xenografted with human MCF7 cells at 7.5 mg/kg, ip qd for 20 days by immunohistochemical analysis; type: functional, organism-based
Homo sapiens [2] = species on record: Homo sapiens; experiment: Binding affinity to internal ribosome entry site A RNA G-quadruplex region of VEGF-A protein in human MDA-MB-231 cells assessed as inhibition of VEGF-A protein induced cell migration at 0.5 to 8 uM after 4 hrs by RTCA method; type: cell-based
[3] = Binding affinity to BCL-2 RNA G-quadruplex (unknown origin) at 1 uM after 24 hrs by spectrophotometric method
[4] = Inhibition of NT-647 dye-labeled BG4 binding to human wild type internal ribosome entry site A RNA G-quadruplex assessed as BG4 antibody Kd by MST analysis (reference value: 10.8 nM)
MCF7 [5] = experiment: Cytotoxicity against human MCF7 cells assessed as reduction in cell viability; type: cell-based
[6] = Binding affinity to C-kit 1 DNA G-quadruplex (unknown origin) at 1 uM after 24 hrs by spectrophotometric method
Homo sapiens [7] = species on record: Homo sapiens; experiment: Binding affinity to internal ribosome entry site A RNA G-quadruplex region of VEGF-A protein in CoCl2 treated human MCF7 cells assessed as VEGF-A protein induced cell migration at 3 uM preincubated for 48 hrs followed by VEGF-A protein addition measured after 12 hrs by cell scrape test relative to control
[8] = Binding affinity to 5'- FAM-labeled wild type human internal ribosome entry site A RNA G-quadruplex after 5 mins by MST analysis
[9] = Binding affinity to TBA DNA G-quadruplex (unknown origin) at 1 uM after 24 hrs by spectrophotometric method
Homo sapiens [10] = species on record: Homo sapiens; experiment: Destabilization of human wild type 5'-FAM labeled internal ribosome entry site A RNA G-quadruplex at 2.5 to 10 uM measured after 3 hrs by electrophoresis mobility shift assay
MCF7 [11] = experiment: Effect on human wild type internal ribosome entry site A RNA G-quadruplex transcription expressed in human MCF7 cells assessed as Met luciferase gene expression at 0.1875 to 1.5 uM after 20 hrs by RT-PCR analysis; type: functional, cell-based
[12] = Binding affinity to c-MYC Pu27 DNA G-quadruplex (unknown origin) at 1 uM after 24 hrs by spectrophotometric method
MCF7 [13] = experiment: Effect on human VEGF-A transcription expressed in human MCF7 cells assessed as Met luciferase gene expression at 0.1875 to 3 uM by RT-PCR analysis; type: functional, cell-based
Homo sapiens [14] = species on record: Homo sapiens; experiment: Binding affinity to human 5'-UGAUGAGUGUGAGUAGUA-3' RNA at 1 uM after 24 hrs by spectrophotometric method
Homo sapiens [15] = species on record: Homo sapiens; experiment: Destabilization of wild type internal ribosome entry site A RNA G-quadruplex in CoCl2 treated human MCF7 cells assessed as decrease in VEGF-A protein expression at 0.1875 to 3 uM after 48 hrs by Western blot analysis
Bos taurus = species on record: Bos taurus; experiment: Binding affinity to calf thymus DNA at 1 uM after 24 hrs by spectrophotometric method
Homo sapiens [16] = species on record: Homo sapiens; experiment: Destabilization of human wild type internal ribosome entry site A RNA G-quadruplex assessed as melting temperature at 5 uM by CD spectra method (reference value: 80.9 +/- 0.8 degreeC)
[17] = Binding affinity to biotin-labeled DNA hairpin (unknown origin) by SPR analysis
Mus musculus [18] = experiment: Toxicity in nude Balb/c mouse xenografted with human MCF7 cells assessed as change in body weight at 7.5 mg/kg, ip qd for 20 days; type: organism-based; conditions: in vivo, 480 h

CCN(CC)CCOc1ccc(Nc2nc(-c3ccccc3NC(=O)CCN3CCN(C)CC3)nc3ccccc23)cc1
Activity (Mus musculus [1]): Active | Activity (Homo sapiens [2]): Active | Activity [3]: inactive | Kd [4]: 4.64 µM | IC50 (MCF7 [5]): 12.5 µM | Activity [6]: inactive | Activity (Homo sapiens [7]): 35% | Kd [8]: 1.29 µM | Activity [9]: inactive | Activity (Homo sapiens [10]): Active | Activity (MCF7 [11]): inactive | Activity [12]: inactive | Activity (MCF7 [13]): inactive | Activity (Homo sapiens [14]): inactive | Activity (Homo sapiens [15]): Dose-dependent effect | Activity (Bos taurus): inactive | Tm (Homo sapiens [16]): 62.2 °C | Kd [17]: 21.2 µM | Activity (Mus musculus [18]): Non-Toxic
